{
  "source": "paper PMC9127750",
  "about": "“Structure-based design of CDC42 effector interaction inhibitors for the treatment of cancer” (Cell reports, 2022)",
  "test_system": "WM3248 melanoma cells, 486 antibodies",
  "assay": "Reverse phase protein arrays (RPPA)",
  "type": "cell-based, Human",
  "details": "20 uM, single replicates",
  "from_the_text": "Pellets were snap frozen in liquid nitrogen and shipped to MD Anderson Cancer Center core RPPA facility for RPPA analysis (Table S5). Three biological replicates for each sample were generated.\nNomenclatures on the RPPA heatmaps: name_of_antibody.species_of_antibody.status_of_antibody. V - antibody validated; C - validation of antibody in progress; Q - antibody nonspecific; E – under evaluation; antibodies raised in M - mouse, G - goat, R - rabbit, or T - rat.",
  "note": "Values joined by “and” are separate entries in the source; they are usually repeats but may differ in a detail not shown here. Identical values can stand only once.",
  "data": [
    {"molecule": "CN(C)c1cccc(Nc2cc(-c3ccccc3)nc(C3CCNCC3)n2)c1", "note": "[ARN22089, N1,N1-dimethyl-N3-(6-phenyl-2-(piperidin-4-yl)pyrimidin-4-yl)benzene-1,3-diamine]", "values": [
      {"measurement": "RPPA PYGB.R.V", "result": "1.097 and 1.103"},
      {"measurement": "RPPA PYGM.M.C", "result": "0.934 and 0.932 and 1.083"},
      {"measurement": "RPPA Patched.R.C", "result": "0.965 and 1.140 and 1.132"},
      {"measurement": "RPPA Paxillin.R.C", "result": "0.641 and 0.823 and 1.018"},
      {"measurement": "RPPA Pdcd4.R.C", "result": "0.925 and 0.993 and 1.052"},
      {"measurement": "RPPA Porin.M.V", "result": "1.104 and 0.957"},
      {"measurement": "RPPA Puma.R.C", "result": "0.983 and 0.942 and 1.107"},
      {"measurement": "RPPA Pyk2_pY402.R.C", "result": "0.954 and 1.153 and 1.099"},
      {"measurement": "RPPA RBM15.R.V", "result": "1.017 and 0.937 and 1.032"},
      {"measurement": "RPPA RIP3.R.C", "result": "0.931 and 0.981"},
      {"measurement": "RPPA RIP.R.C", "result": "0.915 and 1.063"},
      {"measurement": "RPPA RPA32.R.V", "result": "1.148 and 1.033 and 1.052"},
      {"measurement": "RPPA RPA32_pS4_S8.R.C", "result": "2.002 and 1.599 and 0.993"},
      {"measurement": "RPPA RRM1.R.C", "result": "0.824 and 0.941"},
      {"measurement": "RPPA RRM2.R.C", "result": "0.754 and 0.881 and 1.132"},
      {"measurement": "RPPA RSK1.R.V", "result": "0.828 and 0.819"},
      {"measurement": "RPPA RSK.R.C", "result": "1.012 and 0.889 and 1.017"},
      {"measurement": "RPPA Rab11.R.C", "result": "1.004 and 1.130"},
      {"measurement": "RPPA Rab25.R.V", "result": "0.958 and 1.084"},
      {"measurement": "RPPA Rad17_pS645.R.V", "result": "0.998 and 1.234 and 0.987"},
      {"measurement": "RPPA Rad23A.R.C", "result": "0.881 and 0.793 and 1.163"},
      {"measurement": "RPPA Rad50.R.V", "result": 1.028},
      {"measurement": "RPPA Rad51.R.C", "result": "0.897 and 0.995 and 0.927"},
      {"measurement": "RPPA Raptor.R.V", "result": "0.847 and 1.006 and 1.049"},
      {"measurement": "RPPA Rb.M.Q", "result": "1.078 and 0.962 and 0.891"},
      {"measurement": "RPPA Rb_pS807_S811.R.V", "result": "0.920 and 0.719 and 1.081"},
      {"measurement": "RPPA Rheb.M.C", "result": "1.252 and 1.239"},
      {"measurement": "RPPA Rictor.R.C", "result": 0.967},
      {"measurement": "RPPA Rictor_pT1135.R.V", "result": "1.012 and 1.102 and 1.115"},
      {"measurement": "RPPA S6.M.V", "result": "1.262 and 0.956 and 0.729"},
      {"measurement": "RPPA S6_pS235_S236.R.V", "result": "0.203 and 0.249 and 0.565"},
      {"measurement": "RPPA S6_pS240_S244.R.V", "result": "0.207 and 0.313 and 0.749"},
      {"measurement": "RPPA SCD.M.V", "result": "1.014 and 0.906 and 0.962"},
      {"measurement": "RPPA SDHA.R.V", "result": "1.002 and 1.200"},
      {"measurement": "RPPA SF2.R.V", "result": "1.008 and 0.980"},
      {"measurement": "RPPA SFRP1.R.V", "result": "1.055 and 0.981 and 0.922"},
      {"measurement": "RPPA SGK1.R.V", "result": "0.787 and 0.759 and 0.980"},
      {"measurement": "RPPA SGK3.R.V", "result": "1.047 and 1.079 and 0.942"},
      {"measurement": "RPPA SHP2.R.V", "result": "1.046 and 1.001 and 0.967"},
      {"measurement": "RPPA SHP.2_pY542.R.C", "result": 1.101},
      {"measurement": "RPPA SIRPαR.V", "result": "1.429 and 0.758 and 0.756"},
      {"measurement": "RPPA SLC1A5.R.C", "result": "1.116 and 0.885 and 1.238"},
      {"measurement": "RPPA SOD1.M.V", "result": "0.930 and 1.026 and 0.944"},
      {"measurement": "RPPA SOD2.R.V", "result": "1.210 and 1.153 and 0.970"},
      {"measurement": "RPPA SOX7.R.V", "result": "1.129 and 1.097 and 1.010"},
      {"measurement": "RPPA STING.R.V", "result": "1.022 and 0.890 and 0.979"},
      {"measurement": "RPPA Shc_pY317.R.C", "result": "0.878 and 1.001 and 1.156"},
      {"measurement": "RPPA Slfn11.G.C", "result": "1.081 and 0.905 and 0.999"},
      {"measurement": "RPPA Smac.M.Q", "result": "1.032 and 0.944 and 0.954"},
      {"measurement": "RPPA Smad1.R.V", "result": "0.952 and 1.150 and 1.141"},
      {"measurement": "RPPA Smad3.R.V", "result": "1.122 and 1.116"},
      {"measurement": "RPPA Smad4.R.V", "result": "1.439 and 1.061 and 0.837"},
      {"measurement": "RPPA Snail.M.Q", "result": "0.766 and 0.784 and 0.712"},
      {"measurement": "RPPA Sox2.R.V", "result": "1.214 and 1.389"},
      {"measurement": "RPPA Sox17.R.V", "result": "0.937 and 0.923"},
      {"measurement": "RPPA Src.M.V", "result": "0.956 and 1.011 and 0.918"},
      {"measurement": "RPPA Src_pY416.R.V", "result": "0.994 and 1.111 and 0.997"},
      {"measurement": "RPPA Src_pY527.R.V", "result": "1.022 and 1.387 and 1.151"},
      {"measurement": "RPPA Stat1_pY701.R.V", "result": "1.097 and 1.029 and 0.986"},
      {"measurement": "RPPA Stat3.R.C", "result": "0.851 and 0.986 and 1.101"},
      {"measurement": "RPPA Stat3_pY705.R.C", "result": "1.728 and 1.194 and 0.922"},
      {"measurement": "RPPA Stat5a.R.V", "result": "0.903 and 1.373 and 1.278"},
      {"measurement": "RPPA Stathmin.1.R.V", "result": "0.916 and 0.858 and 0.997"},
      {"measurement": "RPPA Syk.M.V", "result": "0.934 and 1.057 and 0.933"},
      {"measurement": "RPPA Synaptophysin.R.C", "result": "1.153 and 0.998 and 0.965"},
      {"measurement": "RPPA TAZ.R.V", "result": "0.631 and 0.534 and 0.991"},
      {"measurement": "RPPA TEAD.R.C", "result": "0.716 and 1.191"},
      {"measurement": "RPPA TFAM.R.V", "result": "0.999 and 0.944 and 0.992"},
      {"measurement": "RPPA TFRC.R.V", "result": "0.895 and 0.844 and 1.062"},
      {"measurement": "RPPA TIGAR.R.V", "result": "1.012 and 1.022 and 1.077"},
      {"measurement": "RPPA TRAP1.M.V", "result": "0.979 and 0.864 and 0.990"},
      {"measurement": "RPPA TRIM24.R.C", "result": "1.117 and 0.958"},
      {"measurement": "RPPA TRIM25.R.C", "result": "0.754 and 0.868 and 1.058"},
      {"measurement": "RPPA TRIP13.R.V", "result": "1.019 and 0.950 and 0.966"},
      {"measurement": "RPPA Tau.M.C", "result": "1.147 and 1.195 and 0.925"},
      {"measurement": "RPPA Transglutaminase.M.V", "result": "0.881 and 1.342 and 1.747"},
      {"measurement": "RPPA level HLA.DQA1.R.V", "result": "1.062 and 1.076 and 0.920"},
      {"measurement": "RPPA level HLA.DR.DP.DQ.DX.R.C", "result": "1.376 and 1.011 and 0.963"},
      {"measurement": "RPPA level HMHA1.R.V", "result": 1.204},
      {"measurement": "RPPA level HNRNPK.R.V", "result": "1.033 and 1.100"},
      {"measurement": "RPPA level HSP27.M.C", "result": "0.818 and 0.879 and 0.896"},
      {"measurement": "RPPA level HSP27_pS82.R.V", "result": "0.857 and 1.102 and 1.157"}
    ]}
  ]
}
